Laboratory results from article PMC6218115, “In Vitro Potency and Preclinical Pharmacokinetic Comparison of All-D-Enantiomeric Peptides Developed for the Treatment of Alzheimer’s Disease” (Journal of Alzheimer's Disease, 2018).
Non-standard residues stand in square brackets, D forms with d. Residues, ends and D or L forms follow the SMILES beside them.

Experiments:
[1] = Cell viability assay (MTT), Aβ1-42-induced cytotoxicity; type: cell-based, rat
Protocol: The cells (10,000 cells/well) were incubated on collagen coated 96 well plates (Gibco, Life Technologies, # A11428-03) for growth in adherent cell culture (24 h, 37°C). Oligomeric Aβ was generated by incubating monomeric Aβ1 - 42 in sodium phosphate buffer (10 mM Na2HPO4/NaH2PO4, pH 7.4) at 21°C and 600 rpm agitation for 4.5 h. […] Absorbance readout was detected with a Polarstar Optima plate reader (BMG, Germany) at 570 and 660 nm. The relative cell viability [%] was calculated by normalizing the absorbance readout to the positive control (PC12 cells incubated with buffer). The IC50 value was determined by plotting the relative cell viability [%] against the respective D-peptides' concentrations. Datasets were fitted by nonlinear regression (logistic fit; OriginPro 9.0G).

[2] = Pharmacokinetic concentration-time profiles and parameters after i.v. and p.o. administration; type: in vivo, C57Bl/6N mice; details: mice; for brain/plasma ratio: 24 h after administration; for Cmax, brain / Cmax, plasma: 3H-label LSC; for Cmax, plasma: 3 mice/time point; for AUC %ID,0 - 1440, plasma: non-compartmental analysis; for F (AUC %ID), oral bioavailability: p.o. 10 mg/kg (ANK6, tANK6) or 15 mg/kg (cANK6r) versus i.v. 3.3 mg/kg, plasma AUC %ID
Protocol: The pharmacokinetic profiles were investigated in 180 male C57Bl/6N mice aged 13-14 weeks, weighing about 27.4 g in average. Mice were ordered at Charles River (Germany) and housed at least one week under standard housing conditions (12/12 h light-dark cycle, approximately 22°C room temperature and 54% humidity; water and food available ad libitum) in the animal facility of the Forschungszentrum Jülich GmbH before the experiments were carried out. All animal experiments were approved by the Animal Protection Committee of the local government according to the German Protection of Animals Act (LANUV, North-Rhine-Westphalia, Germany, Az.84-02.04.2017.A029).
To determine the concentration-time profiles of ANK6, tANK6, and cANK6r in murine brain, plasma, liver, kidney, and cerebrospinal fluid (CSF) after i.v. and p.o. administration, mixed solutions of non-labelled and ^3H-labelled peptides were prepared. The administered solutions contained 1 mg/mL (i.v.) or 3 mg/mL (p.o.) of the respective D-peptide including small amounts of ^3H-labelled peptides (0.54μg/mL ^3H-ANK6, 1.79μg/mL ^3H-tANK6, or 0.98μg/mL ^3H-cANK6r). Doses were administered by body weight: i.v. 3.3 mg/kg, ANK6 & tANK6 p.o. 10 mg/kg, cANK6r p.o. 15 mg/kg. Three male C57Bl/6N mice aged 13-14 weeks were investigated per time point whereby individual outliers were excluded from further evaluation. Organs were harvested as follows: i.v. 5, 10, 30, 60, 120, 240, 360, 1080, 1440 min; p.o.: 10, 20, 30, 60, 120, 240, 360, 1080, 1440 min.
Animals whose CSF was not extracted were anesthetized with isoflurane (cp-pharma, Germany) inhalation approximately 2 min before each organ harvesting time point. Afterwards, blood was taken by cardiac puncture and the heparinized blood was centrifuged (3000 g, 5 min, 4°C) to get plasma. The plasma in the supernatant was separated and 1:1 diluted with PBS. The right brain hemisphere, 200 mg of the big liver lobe, and the right kidney were removed, weighed, and homogenized in 500μL PBS (Precellys Ceramic Kit 1.4 mm, Precellys 24, Bertin technologies SAS, France). 100μL of the diluted plasma, the homogenized brain, liver, or kidney (in triplicates), or 1–5μL (exactly determined) of the extracted CSF (extraction procedure see below, single determination) were mixed with 10 mL scintillation cocktail (Ultima Gold XR, PerkinElmer, USA). The mixture was incubated overnight (100 rpm, room temperature).
Animals whose CSF was extracted (organ harvesting time points: 60 min, 240 min, 1440 min) were i.p. anesthetized with ketamine/medetomidine approximately 20 min before each sampling time point. When the mouse was in deep narcosis, the cisterna magna was laid free and punctuated with a small capillary to extract about 5μL of CSF as described before. Afterwards, cardiac puncture, organ extractions, and sample preparations were performed as described above.
Quantification of the amount of ^3H-labelled D-peptides was performed with a LSC and the results (dpm/sample) were converted into mg/mL or % injected dose (% ID)/mL for plasma and for CSF, or in mg/g or % ID/g for brain, liver, and kidney as described before. Total peptide concentrations in the samples were back-calculated from the measured ^3H-labelled peptides’ radioactivity as described before [[20, 25, 26, 29]].
The determined peptide concentrations were plotted over time to allow for comparison of all peptides’ uptake into brain, plasma, liver, kidney, and CSF. Concentrations at 0 min were set to 0 % ID/mL or 0 % ID/g except for plasma concentrations after i.v. administration. There, concentrations were linearly back-extrapolated based on the first two measured time points (5 min, 10 min).
To calculate the pharmacokinetic parameters of ANK6, tANK6, and cANK6r for plasma and brain, concentration-time profiles were analyzed. […]

[3] = Blood-brain barrier values (logBB, Kin, Vi, PS); type: in vivo, C57Bl/6N mice; details: mice; for logBB, blood-brain equilibrium distribution: after i.v. administration 3.3 mg/kg, log(AUClast,br/AUClast,pl); for PS, permeability surface-area product / Vin / Kin, unidirectional influx rate constant: after i.v. administration; for PS, permeability surface-area product: CBF 1.07 mL/(g*min); for Vin: graphical determination (initial distribution volume in brain); for Kin, unidirectional influx rate constant: graphical determination, linear range 0-240 min (ANK6, cANK6r), 0-1440 min (tANK6)
Protocol: To allow for direct comparison with other peptides, four universally applied BBB parameters were determined: the blood-brain equilibrium distribution (logBB), the […] influx rate constant (Kin), the initial distribution volume in brain (Vi), and the permeability surface-area product (PS). Based on data of the concentration-time profiles and pharmacokinetic parameters after i.v. administration, the BBB parameters were calculated with the help of the formulas listed in Table 2. Graphical determination of Kin and Vi was conducted by plotting the brain concentration to plasma concentration ratio at certain time points (Cb (t)/Cp (t) [mL/g]) on the y-axis against the exposure time (AUCp (t)/Cp (t) [min]) on the x-axis. The linear range for Kin and Vi determination was between 0 and 240 min for ANK6 and cANK6r (R^2: 0.9970, 0.9996) and between 0 and 1440 min for tANK6 (R^2: 0.9758). PS was calculated on the basis of a murine cerebral blood flow (CBF) of 1.07 mL/(g*min).

[4] = i.v. 3.3 mg/kg, back-extrapolated to 0 min
[5] = p.o. 10 mg/kg (ANK6, tANK6) or 15 mg/kg (cANK6r)

| SMILES | IC50 [1] [µM] | AUC %ID,0 - 1440, brain ([2]; i.v. 3.3 mg/kg) [min*% ID/g] | CL, terminal plasma clearance ([2]; i.v. 3.3 mg/kg) [mL/min/kg] | MRT, plasma ([2]; i.v. 3.3 mg/kg) [h] | t1/2, terminal half-life, plasma ([2]; i.v. 3.3 mg/kg) [h] | tmax, brain ([2]; i.v. 3.3 mg/kg) [h] | tmax, plasma ([2]; i.v. 3.3 mg/kg) [h] | λz, terminal elimination rate constant, plasma ([2]; i.v. 3.3 mg/kg) [min⁻¹] | Cmax, brain ([2]; i.v. 3.3 mg/kg) [% ID/g] | Cmax, plasma [2, 4] [% ID/mL] | AUC %ID,0 - 1440, plasma ([2]; i.v. 3.3 mg/kg) [min*% ID/mL] | AUC %ID,0 - 1440, brain [2, 5] [min*% ID/g] | CL, terminal plasma clearance [2, 5] [mL/min/kg] | MRT, plasma [2, 5] [h] | t1/2, terminal half-life, plasma [2, 5] [h] | tmax, brain [2, 5] [h] | tmax, plasma [2, 5] [h] | λz, terminal elimination rate constant, plasma [2, 5] [min⁻¹] | F (AUC %ID), oral bioavailability [2] [%] | Cmax, brain [2, 5] [% ID/g] | other results |
| --- | --- | --- | --- | --- | --- | --- | --- | --- | --- | --- | --- | --- | --- | --- | --- | --- | --- | --- | --- | --- | --- |
| CC[C@@H](C)[C@H]1NC(=O)[C@@H](CCCNC(=N)N)NC(=O)[C@@H](CCCCN)NC(=O)[C@@H](CCCNC(=N)N)NC(=O)[C@@H](CCCNC(=N)N)NC(=O)[C@@H](CCCNC(=N)N)NC(=O)[C@@H](CCCCN)NC(=O)[C@@H](CCCCN)NC(=O)[C@@H](CCCCN)NC(=O)[C@@H]([C@H](C)O)NC(=O)[C@@H](C(C)C)NC(=O)[C@@H](CC(C)C)NC(=O)[C@@H](CCCNC(=N)N)NC1=O [cANK6r] (cyclo([dR][dK][dR][dI][dR][dL][dV][dT][dK][dK][dK][dR][dR])) | 14 | 85.6 | 18.4 | 2 | 18 | 0.083 | 0 | 0.00064 | 0.12 | 3.29 | 181.0 | 19.1 | 135.5 | 9 | 30 | 6 | 1 | 0.00039 | 9.9 | 0.02 | brain/plasma ratio ([2]; p.o.): 1.17; Cmax, plasma [2, 5]: 0.05 % ID/mL; AUC %ID,0 - 1440, plasma [2, 5]: 17.9 min*% ID/mL; logBB, blood-brain equilibrium distribution [3]: –0.329; PS, permeability surface-area product [3]: 0.0003 mL/g/min; Vin [3]: 0.0396 mL/g; Kin, unidirectional influx rate constant [3]: 0.0003 mL/g/min |
| CC[C@@H](C)[C@@H](NC(=O)[C@@H](CCCNC(=N)N)NC(=O)[C@@H](CCCCN)NC(=O)[C@H](N)CCCNC(=N)N)C(=O)N[C@H](CCCNC(=N)N)C(=O)N[C@H](CC(C)C)C(=O)N[C@@H](C(=O)N[C@@H](C(=O)N[C@H](CCCCN)C(=O)N[C@H](CCCCN)C(=O)N[C@H](CCCCN)C(=O)N[C@H](CCCNC(=N)N)C(=O)N[C@H](CCCNC(=N)N)C(=O)N[C@H](CCCCN)C(=O)N[C@H](CCCNC(=N)N)C(=O)N[C@@H](C(=O)N[C@H](CCCNC(=N)N)C(=O)N[C@H](CC(C)C)C(=O)N[C@@H](C(=O)N[C@@H](C(=O)N[C@H](CCCCN)C(=O)N[C@H](CCCCN)C(=O)N[C@H](CCCCN)C(=O)N[C@H](CCCNC(=N)N)C(N)=O)[C@H](C)O)C(C)C)[C@H](C)CC)[C@H](C)O)C(C)C [tANK6] (H-[dR][dK][dR][dI][dR][dL][dV][dT][dK][dK][dK][dR][dR][dK][dR][dI][dR][dL][dV][dT][dK][dK][dK][dR]-NH2; N-terminus assumed) | 4.4 | 56.6 | 88.9 | 7 | 18 | 0.5 | 0 | 0.00063 | 0.06 | 0.40 | 26.1 | 22.5 | 113.0 | 11 | 31 | 18 | 4 | 0.00038 | 49.4 | 0.02 | peptide concentration detected in the blood ([2]; 4 h after single oral administration of 10 mg/kg): 0.01 µM; brain/plasma ratio ([2]; i.v.): 6.89; Cmax, plasma [2, 5]: 0.02 % ID/mL; AUC %ID,0 - 1440, plasma [2, 5]: 12.9 min*% ID/mL; logBB, blood-brain equilibrium distribution [3]: 0.335; PS, permeability surface-area product [3]: 0.0016 mL/g/min; Vin [3]: 0.5833 mL/g; Kin, unidirectional influx rate constant [3]: 0.0016 mL/g/min |
